As usually defined, the pEC50 is −log10 of the EC50, conventionally taken in molar units. Lower therefore signals a large EC50.

pEC50: −log10 of the molar value. Bounds are passed on as bounds.

This note sets out measurements from publication PMC11462456 (Chemical Science, 2024).

Common to all, as to assay type: cell-based
One assay has as its target T1, BRD4 (Homo sapiens, UniProt O60885).
T1 construct: BRD2, BRD3 and BRD4 protein levels were measured by western blot; endogenous in cells; host or cells: HEK293 (ATCC)
Description: Western blot degradation of BRD4 in HEK293 cells. The following applies: HEK293, lenalidomide 10 μM preincubated 2 h, PROTAC 100 nM, 4 h. (Immunoblotting shows a protein as a band on a membrane.)

The target of a further assay is T2, VHL (Homo sapiens, UniProt P40337).
T2 construct: western blot analysis of the levels of CRBN and VHL E3 ligase in cell lysate; endogenous in cells; host or cells: HEK293 (ATCC)
T2 sequence (P40337 whole entry): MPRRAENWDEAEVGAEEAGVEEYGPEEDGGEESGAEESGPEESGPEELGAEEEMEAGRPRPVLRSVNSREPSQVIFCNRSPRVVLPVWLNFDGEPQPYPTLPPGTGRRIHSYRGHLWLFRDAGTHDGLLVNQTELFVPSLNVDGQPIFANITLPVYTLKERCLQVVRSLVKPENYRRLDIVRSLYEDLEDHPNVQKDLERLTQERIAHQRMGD
The experiment in a line: E3 ligase homo-degradation by western blot, VHL. The settings on record: HEK293 cells, 4 h, 1 μM and 10 μM. The text has this:
4. Biological experiments
Primary antibodies used for western blotting included anti-human BRD2(1:2000, rabbit monoclonal, Abcam, ab139690), anti-human BRD3 (1:1000, rabbit monoclonal, Abcam, ab264420), anti-human BRD4 (E2A7X) (1:1000, rabbit monoclonal, Cell Signaling Technology, #13440), anti-human VHL (1:1000, rabbit polyclonal, Cell Signaling Technology, #68547), anti-human CRBN (D8H3S) (1:1000, rabbit polyclonal, Cell Signaling Technology, #71810), anti-human alpha Tubulin, clone B-5-1-2 (1:5000, mouse monoclonal, Merck Life Science, # 32-2500).Secondary antibodies used for western blot included: anti-mouse horseradish peroxidase-linked antibody (1:3000, sheep, GE Healthcare Life Sciences, #NA931V), and anti-rabbit horseradish peroxidase-linked antibody (1:8000, donkey, GE Healthcare Life Sciences, #NA934V). Reagent for degradation assay and compounds […]
dr. Serge Van Calenbergh, Ghent University). […]
General method of Western blot: Lysates were sonicated and centrifuged at 4 °C at 20000 g for 15 min, and the supernatants were transferred to new tubes. Protein concentration of cell lysates was measured using the DC Protein Assay kit (BIO-RAD) following manufacturer's instructions. […]
Figure S5 Homo-degradation effect in Dual-ligand PROTACs. […] Subsequently, cell lysates were prepared and the protein levels of CRBN or VHL E3 ligase were assessed by Western blotting. […]

Another assay has as its system A549 cells. The experiment in a line: CellTiter-Glo 2D metabolic activity assay, A549. The settings on record: Homo sapiens, 2D culture, 48 h. As for the experimental part: (§1) 4.4 Cell viability assay on 2D cells cultures
(§2) HEK293, HCT116, A549,andSKOV-3 cells were seeded in 96-well tissue culture plates at a density of 2000-3000 cells per well in 100 µl of growth medium and incubated overnight at 37 °C with 5% CO2. The following day, the cells were treated with various concentrations of compounds or 0.05% DMSO for 48 h. After treatment, add 100 μl of Cell Titer-Glo® 2.0 Reagent (cat. no. G9243, Promega) in each well, then the 96-well plates were put on an orbital shaker for 10 min and then allow the plate to incubate at room temperature for 10-20min to stabilize the luminescent signal. Luminescence readout (Gen5 Data Analysis Software v3.08.01) was performed to record luminescence.
(§3) (1 picture or pasted object on this page, not shown here)
(Cellular ATP, detected with luciferase, serves as a proxy for viable cell number.)

The next assay concerns HCT116 cells. Description: CellTiter-Glo 2D metabolic activity assay, HCT116. The settings on record: Homo sapiens, HCT-116, 2D culture, 48 h. As for the experimental part: as §1, §2, §3
Another assay deals with HEK293 cells. The experiment in a line: CellTiter-Glo 2D metabolic activity assay, HEK293. The following applies: Homo sapiens, 2D culture, 48 h. On the procedure: Figure S5 Homo-degradation effect in Dual-ligand PROTACs. HEK293 cells were treated with all synthesized PROTACs or 2V-alkyne/2P-alkyne for 4 hours. Subsequently, cell lysates were prepared and the protein levels of CRBN or VHL E3 ligase were assessed by Western blotting. (A) Representative image of CRBN or VHL E3 ligase homo-degradation was screened for all PROTACs and commercial single-ligand PROTACs at a concentration of 0.1, 1 and 10 µM, respectively (equivalent volume of DMSO as control group). (B) Representative image of CRBN or VHL E3 ligase homo-degradation was screened for 2P-alkyne or 2V-alkyne at a concentration of 0.1, 1 and 10 µM, respectively (equivalent volume of DMSO as control group). Experiments were performed as three independent replicates.
as §1
HEK293, HCT116, A549,andSKOV-3 cells were seeded in 96-well tissue culture plates at a density of 2000-3000 cells per well in 100 µl of growth medium and incubated overnight at 37 °C with 5% CO2. The following day, the cells were treated with various concentrations of compounds or 0.05% DMSO for 48 h. […] Luminescence readout (Gen5 Data Analysis Software v3.08.01) was performed to record luminescence. […]

Description for BRD4: 4.2 Cell lines and culture
HEK293, A549, SKOV-3, HCT116 cells (ATCC)were grown in DMEM (Gibco),and all cells were supplemented with 10% (v/v) fetal bovine serum (FBS) (Sigma), 100 mg/mL penicillin/streptomycin solution (Thermo Fisher Scientific) and maintained at 37 °C and 5% CO2 in a humidified atmosphere. All cells used were tested monthly using the Mycoalert
4.3 Degradation assays by Western blot
General method of Western blot: Lysates were sonicated and centrifuged at 4 °C at 20000 g for 15 min, and the supernatants were transferred to new tubes. Protein concentration of cell lysates was measured using the DC Protein Assay kit (BIO-RAD) following manufacturer's instructions. Cell lysates were mixed with reducing sample buffer (0.5 M Tris-HCl (pH 6.8),
at 95°C. Proteins were separated by SDS–PAGE (SDS polyacrylamide gel electrophoresis) with 25–40 µg of total protein per well, transferred to 0.2-μm-pore nitrocellulose membranes (BIO-RAD), then blocked in 5%(w/v) milk in PBS and 0.5% Tween-20, and incubated overnight at 4°C with primary antibodies described in section 4.1. Secondary antibodies were added for 1h at room temperature after 3 times washing with blocking buffer. After 6 times of washing
with PBS (Thermo Fisher Scientific) and 0.5% Tween-20, Blots were detected using the Clarity Western ECL Substrate (BIO-RAD) and visualized on iBright CL 750 (Thermo Fisher Scientific) and images were analyzed using iBright Firmware 1.7.0.
4.3.1 Evaluation of the degradation capacity of PROTACs […]

As for `Cc1sc2c(c1C)C(c1ccc(Cl)cc1)=N[C@@H](CC(=O)NCCOCCOCCNC(=O)C[C@H](NC(=O)COCCOCCOCCOCCn1cc(CCC(=O)N[C@@H](CC(=O)NCCOCCOCCNc3cccc4c3C(=O)N(C3CCC(=O)NC3=O)C4=O)C(=O)NCCOCCOCCNc3cccc4c3C(=O)N(C3CCC(=O)NC3=O)C4=O)nn1)C(=O)NCCOCCOCCNC(=O)C[C@@H]1N=C(c3ccc(Cl)cc3)c3c(sc(C)c3C)-n3c(C)nnc31)c1nnc(C)n1-2` (some centres unmarked) [2J2P], the “BRD4 degradation efficiency on addition of lenalidomide” value at BRD4 is given as “significantly reduced”. In the case of `Cc1ncsc1-c1ccc(C(C)NC(=O)C2CC(O)CN2C(=O)C(NC(=O)COCCOCCNC(=O)CC(NC(=O)CCc2cn(CCOCCOCCOCCOCC(=O)NC(CC(=O)NCCOCCOCCNC(=O)CC3N=C(c4ccc(Cl)cc4)c4c(sc(C)c4C)-n4c(C)nnc43)C(=O)NCCOCCOCCNC(=O)CC3N=C(c4ccc(Cl)cc4)c4c(sc(C)c4C)-n4c(C)nnc43)nn2)C(=O)NCCOCCOCC(=O)NC(C(=O)N2CC(O)CC2C(=O)NC(C)c2ccc(-c3scnc3C)cc2)C(C)(C)C)C(C)(C)C)cc1` (centres unmarked) [2J2V], the VHL homo-degradation result at VHL is “did induce homo-degradation of VHL”. Turning to `Cc1ncsc1-c1ccc(CNC(=O)C2CC(O)CN2C(=O)C(NC(=O)COCCOCCOCCNC(=O)CC2N=C(c3ccc(Cl)cc3)c3c(sc(C)c3C)-n3c(C)nnc32)C(C)(C)C)cc1` (centres unmarked) [MZ1, reference compound], the pEC50 in the assay on A549 cells is 6.40; with HCT116 cells, 7.00; in the assay on HEK293 cells, less than 5.00.
